Test results reported in article PMC11079024, “Identification of a family of species-selective complex I inhibitors as potential anthelmintics” (Nature Communications, 2024).
Where two headings read alike, the source gives them in different places.

Key:
[1] = molecular target: C. elegans (N2) complex I (NADH:ubiquinone oxidoreductase) (Caenorhabditis elegans, UniProt P24887+Q93873+Q94360); assay: biochemical; format: biochemical; conditions: for Log IC50 C. elegans complex I: log10 of IC50 in µM, C. elegans mitochondria
Outline: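 Mitochondria, 0.2 mg/mL protein, freeze-thawed three times, assayed in 25 mM KPi pH 7.5 with BSA, 80 μM NADH, 60 μM decylubiquinone, 160 μM DCIP, antimycin A and KCN. Rate from initial linear slope of A600 over 15 min. % of solvent control.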

[2] = molecular target: B. taurus (heart) complex I (Bos taurus, UniProt P03887+P17694+P42026); assay: biochemical; format: biochemical; conditions: for IC50: B. taurus heart mitochondria, estimated from fitted dose-response curves, read-out: B. taurus Complex I IC50; for Log IC50 B. taurus complex I: log10 of IC50 in µM, B. taurus mitochondria
Procedure: Six 8–10-week-old C57Bl/6 female mice (Charles River) were freshly dissected, and their livers and hearts collected into separate 1.5 mL microcentrifuge tubes. Organs were flash-frozen in liquid nitrogen and stored at −80 °C prior to use. The heart of a freshly slaughtered adult cow was obtained from a local abattoir (Peel Sausage Inc.), chopped into ~1-inch cubes and collected into 50 mL falcon tubes. Falcon tubes were flash-frozen in a container of dry ice and stored at −80 °C prior to use. Isolation of mitochondria from all mammalian tissue was carried out following the protocol described above. However, due to size, the initial homogenization of tissue was performed by 15 strokes in a dounce homogenizer (mouse heart) or with several 5 s pulses in small Nutribullet blender (cow heart). All mouse protocols for mouse care and dissection were reviewed and approved by the University of Toronto Animal Care Committee, in accordance with the Canadian Council on Animal Care.
The enzymatic activities of individual ETC complexes (I-IV) were assessed spectrophotometrically in isolated mitochondria using a Varioskan LUX Multimode plate reader (ThermoFisher Scientific). Mitochondrial pellets previously isolated were thawed on ice and resuspended in ice-cold isolation buffer (250 mM sucrose, 10 mM Tris (pH 7.5), 1 mM EDTA). The BCA assay (Walker, 1994) was used to quantify the protein concentration of mitochondria suspensions; solutions were diluted to a concentration of 0.2 mg/mL for use in all assays. For the complex I assay, mitochondria pellets were freeze-thawed on ice three times to increase enzyme accessibility. […] 20 μL mitochondria suspension was then added/mixed with a pipette to initiate the reaction. Immediately following the addition of mitochondria, absorbance was measured (complex I and II: 600 nm; complex III and IV: 550 nm) in 30 s intervals over 15 min. Enzymatic activity was determined in each reaction by plotting absorbance versus time and calculating the slope of the curve during the initial linear phase of the reaction. […] Percent activity of each complex was calculated by dividing the enzyme-specific activity of each well by the enzyme-specific activity of the corresponding solvent controls.
Chemical solutions were prepared in complex I assay buffer composed of 25 mM KPi buffer (pH 7.5), 3 mg/mL bovine serum albumin (BSA), 80 μM NADH, 60 μM decylubiquinone, 160 μM DCIP, 2 μM antimycin A and 2 mM KCN.
For preliminary screens of hit compounds, compounds were screened at 100 μM; data are the average of at least three biological replicates. The complex I and II activity assays were used for additional dose-response experiments. […] For dose responses of benzimidazole analogs, data represent the average of two biological replicates. For all other dose-responses, data represent the average of at least three biological replicates.

[3] = in vitro complex I dose response on C. elegans mitochondria, average of at least two biological replicates, fit in R (DRC), read-out: IC50 C. elegans complex I
[4] = wild-type (N2) mitochondria, read-out: C. elegans Complex I IC50
[5] = wild-type C. elegans mitochondria, estimated from fitted dose-response curves, read-out: C. elegans Complex I IC50

C. elegans (N2) complex I (NADH:ubiquinone oxidoreductase), sequence (Q94360 17-199): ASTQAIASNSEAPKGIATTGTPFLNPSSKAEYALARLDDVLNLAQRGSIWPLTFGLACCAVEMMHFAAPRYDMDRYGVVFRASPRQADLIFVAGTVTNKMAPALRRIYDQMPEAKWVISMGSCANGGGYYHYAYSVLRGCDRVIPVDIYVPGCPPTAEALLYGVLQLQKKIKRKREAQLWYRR
C. elegans (N2) complex I (NADH:ubiquinone oxidoreductase), sequence (P24887 whole entry): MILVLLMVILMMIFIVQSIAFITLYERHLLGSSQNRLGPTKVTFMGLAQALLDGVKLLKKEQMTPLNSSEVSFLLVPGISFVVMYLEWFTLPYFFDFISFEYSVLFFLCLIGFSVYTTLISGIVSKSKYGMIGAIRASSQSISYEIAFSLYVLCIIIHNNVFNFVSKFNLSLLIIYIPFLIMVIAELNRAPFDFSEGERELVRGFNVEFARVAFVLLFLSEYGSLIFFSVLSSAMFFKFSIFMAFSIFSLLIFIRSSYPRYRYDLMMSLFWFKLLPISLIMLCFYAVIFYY
C. elegans (N2) complex I (NADH:ubiquinone oxidoreductase), sequence (Q93873 31-482): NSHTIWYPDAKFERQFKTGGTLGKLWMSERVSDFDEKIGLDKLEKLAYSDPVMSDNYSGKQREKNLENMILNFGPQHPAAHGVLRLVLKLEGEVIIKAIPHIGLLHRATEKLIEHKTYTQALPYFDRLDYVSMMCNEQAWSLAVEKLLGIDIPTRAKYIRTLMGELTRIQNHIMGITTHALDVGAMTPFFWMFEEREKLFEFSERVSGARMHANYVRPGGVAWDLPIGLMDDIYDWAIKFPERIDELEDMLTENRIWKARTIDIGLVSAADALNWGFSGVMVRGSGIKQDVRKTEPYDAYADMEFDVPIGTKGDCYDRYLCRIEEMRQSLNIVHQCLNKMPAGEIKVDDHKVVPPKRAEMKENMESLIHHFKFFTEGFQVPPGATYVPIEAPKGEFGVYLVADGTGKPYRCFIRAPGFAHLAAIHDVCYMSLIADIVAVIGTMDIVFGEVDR
B. taurus (heart) complex I, sequence (P03887 whole entry): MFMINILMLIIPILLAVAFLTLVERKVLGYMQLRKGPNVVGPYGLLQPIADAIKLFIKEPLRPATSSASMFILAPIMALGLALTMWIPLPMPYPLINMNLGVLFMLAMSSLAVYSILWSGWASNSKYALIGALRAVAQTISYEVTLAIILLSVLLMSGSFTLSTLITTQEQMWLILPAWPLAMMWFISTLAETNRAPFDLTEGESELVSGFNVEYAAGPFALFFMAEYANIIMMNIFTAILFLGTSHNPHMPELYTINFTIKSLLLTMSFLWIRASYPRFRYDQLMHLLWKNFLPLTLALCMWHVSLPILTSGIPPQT
B. taurus (heart) complex I, sequence (P17694 34-463): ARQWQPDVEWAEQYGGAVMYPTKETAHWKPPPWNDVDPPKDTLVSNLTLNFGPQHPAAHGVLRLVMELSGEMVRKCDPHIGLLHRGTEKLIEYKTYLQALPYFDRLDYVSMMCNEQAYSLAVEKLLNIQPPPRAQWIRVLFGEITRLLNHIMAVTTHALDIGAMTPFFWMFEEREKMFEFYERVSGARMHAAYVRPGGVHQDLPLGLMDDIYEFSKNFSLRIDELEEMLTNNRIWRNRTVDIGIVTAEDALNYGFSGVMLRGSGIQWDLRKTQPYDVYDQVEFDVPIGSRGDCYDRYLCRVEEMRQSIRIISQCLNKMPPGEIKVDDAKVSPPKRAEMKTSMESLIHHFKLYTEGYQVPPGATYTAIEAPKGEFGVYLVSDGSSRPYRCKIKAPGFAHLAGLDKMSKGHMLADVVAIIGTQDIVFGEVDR
B. taurus (heart) complex I, sequence (P42026 38-216): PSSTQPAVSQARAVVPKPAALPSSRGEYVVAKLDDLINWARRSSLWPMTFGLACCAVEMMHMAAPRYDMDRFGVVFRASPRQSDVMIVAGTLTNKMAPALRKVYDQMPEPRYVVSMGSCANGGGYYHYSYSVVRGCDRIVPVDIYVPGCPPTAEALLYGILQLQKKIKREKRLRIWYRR

Work on `Clc1ccc(SCCCCn2cnc3ccccc32)cc1` [Compound 7925515] yielded an activity at 0.0001 µM ([1]; Dose 0.0001 µM, read-out: C. elegans mitochondrial complex I activity) of 90.8%, an activity at 0.0005 µM ([1]; Dose 0.0005 µM, read-out: C. elegans mitochondrial complex I activity) of 89.5% and an activity at 0.001 µM ([1]; Dose 0.001 µM, read-out: C. elegans mitochondrial complex I activity) of 93.5%. The activity at 0.0025 µM ([1]; Dose 0.0025 µM, read-out: C. elegans mitochondrial complex I activity) was 93.3%, the activity at 0.005 µM ([1]; Dose 0.005 µM, read-out: C. elegans mitochondrial complex I activity) was 91% and the activity at 0.013 µM ([1]; Dose 0.013 µM, read-out: C. elegans mitochondrial complex I activity) was 90.5%. For the same compound, the activity at 0.025 µM ([1]; Dose 0.025 µM, read-out: C. elegans mitochondrial complex I activity) was 86.2%, the activity at 0.063 µM ([1]; Dose 0.063 µM, read-out: C. elegans mitochondrial complex I activity) was 83.9% and the activity at 0.125 µM ([1]; Dose 0.125 µM, read-out: C. elegans mitochondrial complex I activity) was 76.1%. The activity at 0.313 µM ([1]; Dose 0.313 µM, read-out: C. elegans mitochondrial complex I activity) was 69.1%, the activity at 0.625 µM ([1]; Dose 0.625 µM, read-out: C. elegans mitochondrial complex I activity) was 60.1% and the activity at 1.5 µM ([1]; Dose 1.5 µM, read-out: C. elegans mitochondrial complex I activity) was 39.1%. For the same compound, the activity at 3 µM ([1]; Dose 3 µM, read-out: C. elegans mitochondrial complex I activity) was 22%, the activity at 15 µM ([1]; Dose 15 µM, read-out: C. elegans mitochondrial complex I activity) was 10.5% and the activity at 37.5 µM ([1]; Dose 37.5 µM, read-out: C. elegans mitochondrial complex I activity) was 7.84%. For the same compound, the activity at 75 µM ([1]; Dose 75 µM, read-out: C. elegans mitochondrial complex I activity) was 5.86%, the IC50 [1, 3] was 950 nM and the “Log IC50 C. elegans complex I” value [1] was -0.0223 µM. The IC50 [1, 4] was 950 nM, the IC50 [1, 5] was 950 nM and the IC50 [2] was 8020 nM. The activity at 0.0001 µM ([2]; Dose 0.0001 µM, read-out: B. taurus mitochondrial complex I activity) was 102%, the activity at 0.0005 µM ([2]; Dose 0.0005 µM, read-out: B. taurus mitochondrial complex I activity) was 97.1% and the activity at 0.001 µM ([2]; Dose 0.001 µM, read-out: B. taurus mitochondrial complex I activity) was 96.1%. It also gave an activity at 0.0025 µM ([2]; Dose 0.0025 µM, read-out: B. taurus mitochondrial complex I activity) of 95.6%, an activity at 0.005 µM ([2]; Dose 0.005 µM, read-out: B. taurus mitochondrial complex I activity) of 88.9% and an activity at 0.013 µM ([2]; Dose 0.013 µM, read-out: B. taurus mitochondrial complex I activity) of 95.1%. The activity at 0.025 µM ([2]; Dose 0.025 µM, read-out: B. taurus mitochondrial complex I activity) was 90.6%, the activity at 0.063 µM ([2]; Dose 0.063 µM, read-out: B. taurus mitochondrial complex I activity) was 95.8% and the activity at 0.125 µM ([2]; Dose 0.125 µM, read-out: B. taurus mitochondrial complex I activity) was 98.1%. The activity at 0.313 µM ([2]; Dose 0.313 µM, read-out: B. taurus mitochondrial complex I activity) was 94.7%, the activity at 0.625 µM ([2]; Dose 0.625 µM, read-out: B. taurus mitochondrial complex I activity) was 97.6% and the activity at 1.5 µM ([2]; Dose 1.5 µM, read-out: B. taurus mitochondrial complex I activity) was 86.3%. For the same compound, the activity at 3 µM ([2]; Dose 3 µM, read-out: B. taurus mitochondrial complex I activity) was 74.8%, the activity at 15 µM ([2]; Dose 15 µM, read-out: B. taurus mitochondrial complex I activity) was 26.8% and the activity at 37.5 µM ([2]; Dose 37.5 µM, read-out: B. taurus mitochondrial complex I activity) was 5.44%. For the same compound, the activity at 75 µM ([2]; Dose 75 µM, read-out: B. taurus mitochondrial complex I activity) was 2.46% and the “Log IC50 B. taurus complex I” value [2] was 0.90 µM.

`Brc1ccc(Cn2cnc3ccccc32)cc1` [Compound 5542661] was tested, and the IC50 [1, 3] was 530 nM, the “Log IC50 C. elegans complex I” value [1] was -0.28 µM and the IC50 [1, 4] was 530 nM. The IC50 [1, 5] was 530 nM, the IC50 [2] was 3350 nM and the “Log IC50 B. taurus complex I” value [2] was 0.53 µM.
